Laboratory results taken from ChEMBL document CHEMBL3120093 (J Med Chem, 2014).
Values belong to the compound of their own block, whether it stands above or below them.

Assays:
[1] = Permeability of the compound at PH 7.4 by PAMPA; type: ADME; conditions: for Papp: read-out: permeability
[2] = Drug uptake in rat liver at 5 mg/kg, po after 4 hrs; type: ADME, organism-based; parameters: dose 5 mg/kg, route oral; conditions: read-out: Drug uptake
[3] = AUC in rat at 5 mg/kg, po after 4 hrs; type: ADME, organism-based; parameters: time < 4 hr, dose 5 mg/kg, route oral; conditions: plasma
[4] = Plasma concentration in rat at 5 mg/kg, po after 4 hrs; type: ADME, organism-based; parameters: dose 5 mg/kg, route oral
[5] = Half life in mouse at 5 mg/kg, iv after 24 hrs; type: ADME, organism-based; parameters: dose 5 mg/kg, route intravenous; conditions: in vivo
[6] = Volume of distribution in rat at 2 mg/kg, iv after 24 hrs; type: ADME, organism-based; parameters: dose 2 mg/kg, route intravenous; conditions: in vivo
[7] = Clearance in rat at 2 mg/kg, iv after 24 hrs; type: ADME, organism-based; parameters: dose 2 mg/kg, route intravenous; conditions: in vivo
[8] = Plasma concentration in mouse at 20 mg/kg, po after 24 hrs; type: ADME, organism-based; parameters: dose 20 mg/kg, route oral
[9] = Drug uptake in mouse liver at 20 mg/kg, po after 24 hrs; type: ADME, organism-based; parameters: dose 20 mg/kg, route oral; conditions: read-out: Drug uptake
[10] = Plasma concentration in dog at 3 mg/kg, po after 24 hrs; type: ADME, organism-based, Canis lupus familiaris; parameters: dose 3 mg/kg, route oral
[11] = AUC in dog at 3 mg/kg, po after 24 hrs; type: ADME, organism-based, Canis lupus familiaris; parameters: time < 24 hr, dose 3 mg/kg, route oral; conditions: plasma
[12] = Clearance in mouse at 5 mg/kg, iv after 24 hrs; type: ADME, organism-based; parameters: dose 5 mg/kg, route intravenous; conditions: in vivo
[13] = Oral bioavailability in mouse at 20 mg/kg after 24 hrs; type: ADME, organism-based; conditions: plasma
[14] = Volume of distribution in mouse at 5 mg/kg, iv after 24 hrs; type: ADME, organism-based; parameters: dose 5 mg/kg, route intravenous; conditions: in vivo
[15] = AUC in mouse at 20 mg/kg, po after 24 hrs; type: ADME, organism-based; parameters: time < 24 hr, dose 20 mg/kg, route oral; conditions: plasma
[16] = Half life in rat at 2 mg/kg, iv after 24 hrs; type: ADME, organism-based; parameters: dose 2 mg/kg, route intravenous; conditions: in vivo
[17] = Oral bioavailability in dog at 3 mg/kg after 24 hrs; type: ADME, organism-based, Canis lupus familiaris; conditions: plasma
[18] = Volume of distribution in dog at 1 mg/kg, iv after 24 hrs; type: ADME, organism-based, Canis lupus familiaris; parameters: dose 1 mg/kg, route intravenous; conditions: in vivo
[19] = Clearance in rat at 2 mg/kg, iv after 4 hrs; type: ADME, organism-based; parameters: dose 2 mg/kg, route intravenous; conditions: in vivo
[20] = Oral bioavailability in rat at 5 mg/kg after 24 hrs; type: ADME, organism-based; conditions: in vivo
[21] = AUC in rat at 5 mg/kg, po after 24 hrs; type: ADME, organism-based; parameters: time < 24 hr, dose 5 mg/kg, route oral; conditions: plasma

Papp [1]: 16.4 ×10⁻⁶ cm/s | concentration at 4 h [2]: 26.2 nM
SMILES: COC(=O)NCC(=O)N1CCC[C@H]1c1ncc(-c2ccc(-c3ccc(-c4cnc([C@@H]5CCCN5C(=O)[C@H](NC(=O)OC)c5ccccc5)[nH]4)cc3)cc2)[nH]1

Papp [1]: 50 ×10⁻⁶ cm/s
SMILES: COC(=O)N[C@@H](C(=O)N1CCC[C@H]1c1ncc(-c2ccc(-c3ccc(-c4cnc([C@@H]5CCCN5C(C)=O)[nH]4)cc3)cc2)[nH]1)c1ccccc1

Papp [1]: 48 ×10⁻⁶ cm/s | AUC at 4 h [3]: 0.127 µM·h | concentration at 4 h [2]: 802 nM | concentration at 4 h [4]: 27 nM
SMILES: COC(=O)N[C@@H](C(=O)N1CCC[C@H]1c1ncc(-c2ccc(-c3ccc(-c4cnc([C@@H]5CCCN5C(=O)[C@@H]5CCCO5)[nH]4)cc3)cc2)[nH]1)c1ccccc1

Papp [1]: 17.7 ×10⁻⁶ cm/s
SMILES: COC(=O)N[C@@H](C(=O)N1CCC[C@H]1c1ncc(-c2ccc(-c3ccc(-c4cnc([C@@H]5CCCN5C(=O)[C@H](NC(=O)OC)c5ccccc5)[nH]4)cn3)cc2)[nH]1)c1ccccc1

Papp [1]: 17.9 ×10⁻⁶ cm/s
SMILES: COC(=O)N[C@@H](C(=O)N1CCC[C@H]1c1ncc(-c2ccc(-c3ccc(-c4cnc([C@@H]5CCCN5C(=O)[C@H](NC(=O)OC)c5ccccc5)[nH]4)nc3)cc2)[nH]1)c1ccccc1

Vd [6]: 1.7 L/kg | Papp [1]: 18.6 ×10⁻⁶ cm/s | clearance [7]: 36 mL/min/kg | bioavailability [20]: 0.5% | AUC at 24 h [21]: 0.021 µM·h | half-life [16]: 1.7 h
SMILES: COC(=O)N[C@@H](C(=O)N1CCC[C@H]1c1ncc(-c2ccc(-c3ncc(-c4cnc([C@@H]5CCCN5C(=O)[C@H](NC(=O)OC)c5ccccc5)[nH]4)cn3)cc2)[nH]1)c1ccccc1

More lines, now with the values behind:

SMILES: COC(=O)N[C@H](C)C(=O)N1CCC[C@H]1c1ncc(-c2ccc(-c3ccc(-c4cnc([C@@H]5CCCN5C(=O)[C@@H](C)NC(=O)OC)[nH]4)cc3)cc2)[nH]1
Papp [1]: 4.7 ×10⁻⁶ cm/s

SMILES: CCOC(=O)N[C@@H](C)C(=O)N1CCC[C@H]1c1ncc(-c2ccc(-c3ccc(-c4cnc([C@@H]5CCCN5C(=O)[C@H](C)NC(=O)OCC)[nH]4)cc3)cc2)[nH]1
Papp [1]: 45.1 ×10⁻⁶ cm/s

SMILES: COC(=O)NC(C)(C)C(=O)N1CCC[C@H]1c1ncc(-c2ccc(-c3ccc(-c4cnc([C@@H]5CCCN5C(=O)C(C)(C)NC(=O)OC)[nH]4)cc3)cc2)[nH]1
Papp [1]: 2.6 ×10⁻⁶ cm/s

SMILES: COC(=O)NC1(C(=O)N2CCC[C@H]2c2ncc(-c3ccc(-c4ccc(-c5cnc([C@@H]6CCCN6C(=O)C6(NC(=O)OC)CC6)[nH]5)cc4)cc3)[nH]2)CC1
Papp [1]: 0.2 ×10⁻⁶ cm/s

SMILES: CN(C)[C@@H](C(=O)N1CCC[C@H]1c1ncc(-c2ccc(-c3ccc(-c4cnc([C@@H]5CCCN5C(=O)[C@H]5CCCO5)[nH]4)cc3)cc2)[nH]1)c1ccccc1
half-life [5]: 7.8 h | Vd [6]: 60 L/kg | Papp [1]: 15.8 ×10⁻⁶ cm/s | clearance [7]: 57 mL/min/kg | concentration at 24 h [8]: 25 nM | concentration at 24 h [9]: 539 nM | concentration at 24 h [10]: 30 nM | AUC at 24 h [11]: 0.436 µM·h | clearance [12]: 18 mL/min/kg | bioavailability [13]: 6% | Vd [14]: 14 L/kg | AUC at 24 h [15]: 1.42 µM·h | half-life [16]: 14 h | bioavailability [17]: 60% | Vd [18]: 82 L/kg

SMILES: CN(C)[C@@H](C(=O)N1CCC[C@H]1c1ncc(-c2ccc(-c3ccc(-c4cnc([C@@H]5CCCN5C(=O)[C@@H]5CCCO5)[nH]4)cc3)cc2)[nH]1)c1ccccc1
Papp [1]: 20 ×10⁻⁶ cm/s | AUC at 4 h [3]: 0.062 µM·h | concentration at 4 h [2]: 563 nM | concentration at 4 h [4]: 27 nM

SMILES: CCN(C)[C@@H](C(=O)N1CCC[C@H]1c1ncc(-c2ccc(-c3ccc(-c4cnc([C@@H]5CCCN5C(=O)[C@@H](c5ccccc5)N(C)CC)[nH]4)cc3)cc2)[nH]1)c1ccccc1
Papp [1]: 10.6 ×10⁻⁶ cm/s | AUC at 4 h [3]: 0.006 µM·h | clearance [19]: 88 mL/min/kg | concentration at 4 h [2]: 1980 nM | concentration at 4 h [4]: 2 nM

SMILES: CCN(CC)[C@@H](C(=O)N1CCC[C@H]1c1ncc(-c2ccc(-c3ccc(-c4cnc([C@@H]5CCCN5C(=O)[C@@H](c5ccccc5)N(CC)CC)[nH]4)cc3)cc2)[nH]1)c1ccccc1
Papp [1]: 25.5 ×10⁻⁶ cm/s | AUC at 4 h [3]: 0.013 µM·h | clearance [19]: 4 mL/min/kg | concentration at 4 h [2]: 1090 nM | concentration at 4 h [4]: 6 nM

SMILES: O=C(C(c1ccccc1)N1CC[C@H](F)C1)N1CCC[C@H]1c1ncc(-c2ccc(-c3ccc(-c4cnc([C@@H]5CCCN5C(=O)C(c5ccccc5)N5CC[C@H](F)C5)[nH]4)cc3)cc2)[nH]1 (stereo in doubt; 21)
permeability [1]: impermeable
